# Data reported in patent US20260215425A1, “NITRIFICATION INHIBITORS” (The University of Melbourne, priority 2022, published 2026).
# Key:
# [1] = biological target: T1, hydroxylamine oxireductase (HOA) (Nitrosomonas europaea, UniProt Q50925); test: standard nitrification inhibition assay with NH2OH as substrate; type: cell-based, N. europaea; settings: substrate NH2OH 3 mM, [inhibitor]=0.3 mM, pH 7.5, 30° C., 60 min; read-out: % Inhibition NE
# T1 construct: N. europaea and N. multiformis contain naturally both enzymes; endogenous in cells; host or cells: N. europaea pure culture (whole cells in NaPB)
# T1 sequence (Q50925 25-570): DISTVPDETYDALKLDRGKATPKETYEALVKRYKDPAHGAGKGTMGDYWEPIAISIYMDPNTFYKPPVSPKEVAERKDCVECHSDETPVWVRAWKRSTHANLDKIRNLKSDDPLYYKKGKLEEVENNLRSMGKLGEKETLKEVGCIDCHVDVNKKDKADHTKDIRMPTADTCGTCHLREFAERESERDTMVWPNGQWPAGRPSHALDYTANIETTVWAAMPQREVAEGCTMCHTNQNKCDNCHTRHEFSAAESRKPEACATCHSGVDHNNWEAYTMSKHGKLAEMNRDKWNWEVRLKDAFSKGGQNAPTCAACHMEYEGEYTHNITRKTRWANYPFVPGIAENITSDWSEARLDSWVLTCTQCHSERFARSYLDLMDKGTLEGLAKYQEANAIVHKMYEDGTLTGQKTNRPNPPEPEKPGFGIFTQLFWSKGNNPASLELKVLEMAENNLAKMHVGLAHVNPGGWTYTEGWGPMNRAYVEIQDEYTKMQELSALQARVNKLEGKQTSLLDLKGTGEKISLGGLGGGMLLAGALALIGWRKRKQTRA
# [2] = test system: hydroxylamine oxireductase (HOA); test: as above; type: cell-based, N. multiformis; settings: substrate NH2OH 3 mM, [inhibitor]=0.3 mM, pH 7.5, 30° C., 60 min
# soils B-E = test: soil incubation, N2O production in soils B-E
# Procedure: Soil incubations were performed in three replicates. Each sample consisted of 6 g of sieved soil (2 mm). The soil was air-dried after collection and pre-incubated prior to the experiment for seven days at 50% water holding capacity (WHC). The soil was transferred to a gas chromatography vial (22 mL volume, clear glass, Macherey-Nagel, Germany) and compacted densely to allow 5.5-6.2 cm headspace. The soil in the vials was incubated for a total of 21 days at a constant temperature of 21° C. with an open lid to ensure gas circulation. The control incubations contained ‘untreated’ soil (deionized H2O only) and ‘fertiliser only’ soil ((NH4)2SO4; 50 mg kg^−1 soil) and accompanied each measurement. (NH4)2SO4 was applied as an aqueous solution ([…]) and introduced on the soil surface to mimic field conditions. Three inhibitor solutions were prepared from DMP and 4-MPT at concentrations of 0.5 mol %, 2.5 mol % and 5 mol % of applied fertiliser-N and applied on the soil surface. The soils reached 60% WHC after the treatments had been applied and were kept at that moisture level by periodically adding deionized water to compensate for evaporation losses. At the day of measurement (day 1, 3, 5, 7, 14 and 21 after fertilization) the vials were closed gas-tight with a rubber septum and aluminium lid and opened again after each measurement. The N2O emission was analysed using a gas chromatograph equipped with an electron capture detector and flame ionization detector (GC-ECD/FID; Clarus 580, Perkin Elmer). A linear regression slope was used to calculate N2O—N production rates, F, according to eqn. 5:
# where ΔC/Δt represents the change of the N2O concentration over the time interval t in ppbv, V represents the headspace volume in L, M represents the molar mass of N in N2O, m represents the amount of soil in g dry weight, Vm represents the molar volume of ideal gases (22.414 L mol^−1) at 0° C. and 101.325 kPa, corrected for the gas sampler using T0 (273.15 K) and Ta (air temperature in K).
smiles,measurement,setting,value
"C#CCn1cc(C)nn1 [Compound 4-MPT, 4-Methyl-1-(prop-2-yn-1yl)-1H-1,2,3-triazole]",inhibition at 300 µM,[1],28 ± 3%
same,% Inhibition NM,[2],33 ± 4%
same,N2O production,"soils B-E; Soil B, 0.5 mol %, Day 1",0.058 ± 0.004 μg g^−1 soil h^−1
same,N2O production,"soils B-E; Soil B, 0.5 mol %, Day 3",0.009 ± 0.009 μg g^−1 soil h^−1
same,N2O production,"soils B-E; Soil B, 0.5 mol %, Day 5",0.000 ± 0.000 μg g^−1 soil h^−1
same,N2O production,"soils B-E; Soil B, 0.5 mol %, Day 7",−0.013 ± 0.013 μg g^−1 soil h^−1
same,N2O production,"soils B-E; Soil B, 0.5 mol %, Day 14",0.008 ± 0.008 μg g^−1 soil h^−1
same,N2O production,"soils B-E; Soil B, 0.5 mol %, Day 21",0.011 ± 0.011 μg g^−1 soil h^−1
same,N2O production,"soils B-E; Soil B, 2.5 mol %, Day 1",0.007 ± 0.007 μg g^−1 soil h^−1
same,N2O production,"soils B-E; Soil B, 2.5 mol %, Day 3",0.000 ± 0.000 μg g^−1 soil h^−1
same,N2O production,"soils B-E; Soil B, 2.5 mol %, Day 5",−0.007 ± 0.007 μg g^−1 soil h^−1
same,N2O production,"soils B-E; Soil B, 2.5 mol %, Day 7",−0.019 ± 0.019 μg g^−1 soil h^−1
same,N2O production,"soils B-E; Soil B, 2.5 mol %, Day 14",0.000 ± 0.000 μg g^−1 soil h^−1
same,N2O production,"soils B-E; Soil B, 2.5 mol %, Day 21",0.000 ± 0.000 μg g^−1 soil h^−1
same,N2O production,"soils B-E; Soil B, 5 mol %, Day 1",0.000 ± 0.000 μg g^−1 soil h^−1
same,N2O production,"soils B-E; Soil B, 5 mol %, Day 3",0.000 ± 0.000 μg g^−1 soil h^−1
same,N2O production,"soils B-E; Soil B, 5 mol %, Day 5",0.000 ± 0.000 μg g^−1 soil h^−1
same,N2O production,"soils B-E; Soil B, 5 mol %, Day 7",−0.048 ± 0.026 μg g^−1 soil h^−1
same,N2O production,"soils B-E; Soil B, 5 mol %, Day 14",0.000 ± 0.000 μg g^−1 soil h^−1
same,N2O production,"soils B-E; Soil B, 5 mol %, Day 21",0.000 ± 0.000 μg g^−1 soil h^−1
same,N2O production,"soils B-E; Soil C, 0.5 mol %, Day 1",0.119 ± 0.011 μg g^−1 soil h^−1
same,N2O production,"soils B-E; Soil C, 0.5 mol %, Day 3",0.062 ± 0.001 μg g^−1 soil h^−1
same,N2O production,"soils B-E; Soil C, 0.5 mol %, Day 5",0.059 ± 0.007 μg g^−1 soil h^−1
same,N2O production,"soils B-E; Soil C, 0.5 mol %, Day 7",0.054 ± 0.006 μg g^−1 soil h^−1
same,N2O production,"soils B-E; Soil C, 0.5 mol %, Day 14",0.119 ± 0.010 μg g^−1 soil h^−1
same,N2O production,"soils B-E; Soil C, 0.5 mol %, Day 21",0.107 ± 0.008 μg g^−1 soil h^−1
same,N2O production,"soils B-E; Soil C, 2.5 mol %, Day 1",0.042 ± 0.04 μg g^−1 soil h^−1
same,N2O production,"soils B-E; Soil C, 2.5 mol %, Day 3",0.000 ± 0.000 μg g^−1 soil h^−1
same,N2O production,"soils B-E; Soil C, 2.5 mol %, Day 5",0.011 ± 0.011 μg g^−1 soil h^−1
same,N2O production,"soils B-E; Soil C, 2.5 mol %, Day 7",0.031 ± 0.003 μg g^−1 soil h^−1
same,N2O production,"soils B-E; Soil C, 2.5 mol %, Day 14",0.012 ± 0.008 μg g^−1 soil h^−1
same,N2O production,"soils B-E; Soil C, 2.5 mol %, Day 21",0.019 ± 0.010 μg g^−1 soil h^−1
same,N2O production,"soils B-E; Soil C, 5 mol %, Day 1",0.017 ± 0.017 μg g^−1 soil h^−1
same,N2O production,"soils B-E; Soil C, 5 mol %, Day 3",0.000 ± 0.000 μg g^−1 soil h^−1
same,N2O production,"soils B-E; Soil C, 5 mol %, Day 5",0.000 ± 0.000 μg g^−1 soil h^−1
same,N2O production,"soils B-E; Soil C, 5 mol %, Day 7",0.024 ± 0.013 μg g^−1 soil h^−1
same,N2O production,"soils B-E; Soil C, 5 mol %, Day 14",0.023 ± 0.007 μg g^−1 soil h^−1
same,N2O production,"soils B-E; Soil C, 5 mol %, Day 21",0.000 ± 0.000 μg g^−1 soil h^−1
same,N2O production,"soils B-E; Soil D, 0.5 mol %, Day 1",0.029 ± 0.029 μg g^−1 soil h^−1
same,N2O production,"soils B-E; Soil D, 0.5 mol %, Day 3",0.058 ± 0.009 μg g^−1 soil h^−1
same,N2O production,"soils B-E; Soil D, 0.5 mol %, Day 5",0.004 ± 0.004 μg g^−1 soil h^−1
same,N2O production,"soils B-E; Soil D, 0.5 mol %, Day 7",0.037 ± 0.021 μg g^−1 soil h^−1
same,N2O production,"soils B-E; Soil D, 0.5 mol %, Day 14",0.037 ± 0.005 μg g^−1 soil h^−1
same,N2O production,"soils B-E; Soil D, 0.5 mol %, Day 21",0.045 ± 0.014 μg g^−1 soil h^−1
same,N2O production,"soils B-E; Soil D, 2.5 mol %, Day 1",0.015 ± 0.010 μg g^−1 soil h^−1
same,N2O production,"soils B-E; Soil D, 2.5 mol %, Day 3",0.020 ± 0.010 μg g^−1 soil h^−1
same,N2O production,"soils B-E; Soil D, 2.5 mol %, Day 5",0.000 ± 0.000 μg g^−1 soil h^−1
same,N2O production,"soils B-E; Soil D, 2.5 mol %, Day 7",0.037 ± 0.018 μg g^−1 soil h^−1
same,N2O production,"soils B-E; Soil D, 2.5 mol %, Day 14",0.000 ± 0.000 μg g^−1 soil h^−1
same,N2O production,"soils B-E; Soil D, 2.5 mol %, Day 21",0.000 ± 0.000 μg g^−1 soil h^−1
same,N2O production,"soils B-E; Soil D, 5 mol %, Day 1",0.000 ± 0.000 μg g^−1 soil h^−1
same,N2O production,"soils B-E; Soil D, 5 mol %, Day 3",0.027 ± 0.013 μg g^−1 soil h^−1
same,N2O production,"soils B-E; Soil D, 5 mol %, Day 5",0.000 ± 0.000 μg g^−1 soil h^−1
same,N2O production,"soils B-E; Soil D, 5 mol %, Day 7",0.020 ± 0.011 μg g^−1 soil h^−1
same,N2O production,"soils B-E; Soil D, 5 mol %, Day 14",0.000 ± 0.000 μg g^−1 soil h^−1
same,N2O production,"soils B-E; Soil D, 5 mol %, Day 21",0.000 ± 0.000 μg g^−1 soil h^−1
same,N2O production,"soils B-E; Soil E, 0.5 mol %, Day 1",0.007 ± 0.007 μg g^−1 soil h^−1
same,N2O production,"soils B-E; Soil E, 0.5 mol %, Day 3",0.011 ± 0.011 μg g^−1 soil h^−1
same,N2O production,"soils B-E; Soil E, 0.5 mol %, Day 5",0.000 ± 0.000 μg g^−1 soil h^−1
same,N2O production,"soils B-E; Soil E, 0.5 mol %, Day 7",0.000 ± 0.000 μg g^−1 soil h^−1
same,N2O production,"soils B-E; Soil E, 0.5 mol %, Day 14",0.000 ± 0.000 μg g^−1 soil h^−1
same,N2O production,"soils B-E; Soil E, 0.5 mol %, Day 21",0.000 ± 0.000 μg g^−1 soil h^−1
same,N2O production,"soils B-E; Soil E, 2.5 mol %, Day 1",0.008 ± 0.008 μg g^−1 soil h^−1
same,N2O production,"soils B-E; Soil E, 2.5 mol %, Day 3",0.008 ± 0.008 μg g^−1 soil h^−1
same,N2O production,"soils B-E; Soil E, 2.5 mol %, Day 5",0.000 ± 0.000 μg g^−1 soil h^−1
same,N2O production,"soils B-E; Soil E, 2.5 mol %, Day 7",0.000 ± 0.000 μg g^−1 soil h^−1
same,N2O production,"soils B-E; Soil E, 2.5 mol %, Day 14",0.000 ± 0.000 μg g^−1 soil h^−1
same,N2O production,"soils B-E; Soil E, 2.5 mol %, Day 21",0.000 ± 0.000 μg g^−1 soil h^−1
same,N2O production,"soils B-E; Soil E, 5 mol %, Day 1",0.012 ± 0.012 μg g^−1 soil h^−1
same,N2O production,"soils B-E; Soil E, 5 mol %, Day 3",0.000 ± 0.000 μg g^−1 soil h^−1
same,N2O production,"soils B-E; Soil E, 5 mol %, Day 5",0.000 ± 0.000 μg g^−1 soil h^−1
same,N2O production,"soils B-E; Soil E, 5 mol %, Day 7",0.000 ± 0.000 μg g^−1 soil h^−1
same,N2O production,"soils B-E; Soil E, 5 mol %, Day 14",0.000 ± 0.000 μg g^−1 soil h^−1
same,N2O production,"soils B-E; Soil E, 5 mol %, Day 21",0.000 ± 0.000 μg g^−1 soil h^−1
same,N2O production rate,"soils B-E; soil B, 0.5 mol % (lowest application rate), day 1",0.06 ng g^−1 soil h^−1
same,amount of N2O,"soils B-E; soil B, other than day 1 at the lowest application rate, over the duration of the experiment",below the detection limit
same,N2O relative to the amount released from the uninhibited soil,"soils B-E; soil C, 0.5 mol %",25%
same,N2O produced,"soils B-E; soil C, 0.5 mol %, across the duration of the incubation",about 0.12 ng h^1
same,production of N2O,"soils B-E; soil C, higher application rates (2.5 and 5 mol %)",nearly completely suppressed
same,slowing down of N2O production,"soils B-E; soil D, 0.5 mol %",60%
same,N2O production rate,"soils B-E; soil D, two higher application rates (2.5 and 5 mol %), from the start of the experiment",practically zero
same,N2O production beyond day 5,"soils B-E; soil E, all 4-MPT treatments (0.5, 2.5, 5 mol %)",no N2O production was detected
